Experimental data taken from US20100041972A1, “APPARATUS AND METHODS” (priority 2006, published 2010).

Experiments:
rat dorsal raphe = assay: MEA recording of neuronal firing in rat dorsal raphe slice; format: cell-based; details: channels 34, 43, 48 and 57; heterogeneity noted
Description: Wistar rats or mice obtained from Charles River were sacrificed by cervical dislocation. The brain was rapidly removed and a block of tissue containing the relevant area was prepared. Brain tissue was glued onto a glass slide using cyanoacryalate glue (Permabond C2). The block was supported by a similar sized block of agar (3% in NaCl, 126 mM) glued immediately behind the brain block. Coronal slices (300 μm thick) of the relevant brain slice were cut from the brain using a Vibratome™ (Oxford Instruments, supplied by Intracel, Unit 4, Station Road, Shepreth, Royston. Herts. UK). The slices were transferred to artificial cerebrospinal fluid (ACSF) which contained (in mM): NaCl 126, KCl 5, NaH2PO4 1.24, CaCl2 2.4, MgCl2 1.3, NaHCO3 26, glucose 10, at pH 7.4, continuously bubbled with ‘carbogen’ (95% O2/5% CO2) and maintained at room temperature. […]
Extracelular action potentials were recorded from either isolated neurones, or several neurones per electrode. […]
All spike waveforms or LFP ‘events’ that crossed a pre-set voltage threshold (−12 and −8 pV respectively) were stored as both ‘time-stamps’ (i.e. ‘time of occurrence’), and as ‘spike cut-outs’ (i.e. digitised waveform prior to, and after threshold crossing). All experimental data were recorded directly on to hard disk, and backed up onto various means of data archiving. […]

[1] = test system: olfactory bulb mitral cells; assay: Acute in vivo MEA recording of odour response in olfactory bulb; parameters: species or system male Wistar rats; details: odour at 5.42×10^−6 M in breathing air, urethane anaesthesia
From the text: Multi-electrode array recordings from olfactory bulb mitral cells (5×5 array). 1. Spontaneous population burst. 2. Control, no odour. 3. Arnyl acetate. 4. N-butanol. 5. Cineole. 6. Pinene. 7. DL-Camphor. 8. Linalool (max response). 9. Linalool “off response”. […] The results are shown as peak odour response neuronal activity maps in olfactory bulb. These records were from male Wistar rats (400 g) anaesthetized with urethane and secured in a stereotaxic unit). The NeuroZonds MEAs of the invention penetrated the left olfactory bulbs horizontally (after left enucleation). The odours were presented in the animals breathing air under the control of the normal breathing cycle (detected by thermistor probe in mask), diluted from stock in pure nitrogen. The concentrations of odourants were determined according to the relative saturation vapour pressures of the odourants at particular temperatures via a custom-built ‘olfactometer’.

Compound | neuronal firing, effect of XE-991 after retigabine (rat dorsal raphe) | spatiotemporal dynamics of odour response [1]
O=C1c2ccccc2C(Cc2ccncc2)(Cc2ccncc2)c2ccccc21 [XE-991] | recovery of retigabine inhibition | 
pinene |  | marked “off response”
